Results as given in ChEMBL document CHEMBL1250440, “Development of chemical probes: toward the mode of action of a methylene-linked di(aryl acetate) E1” (Bioorg Med Chem, 2010).
pIC50: −log10 of the molar value. Calls of active or inactive are those of the source. The rule behind the calls is not given here.

The molecules below were run against T1, RAC-alpha serine/threonine-protein kinase (Homo sapiens, UniProt P31749) (assay: Inhibition of PKB/Akt activation in human overnight starved MCF7 cells assessed as phosphorylated Akt at Ser473 level at 50 ug/ml after 1 hr followed by treated with 1 ug/mL of insulin for 15 mins by Western blotting).
T1 sequence (P31749 whole entry): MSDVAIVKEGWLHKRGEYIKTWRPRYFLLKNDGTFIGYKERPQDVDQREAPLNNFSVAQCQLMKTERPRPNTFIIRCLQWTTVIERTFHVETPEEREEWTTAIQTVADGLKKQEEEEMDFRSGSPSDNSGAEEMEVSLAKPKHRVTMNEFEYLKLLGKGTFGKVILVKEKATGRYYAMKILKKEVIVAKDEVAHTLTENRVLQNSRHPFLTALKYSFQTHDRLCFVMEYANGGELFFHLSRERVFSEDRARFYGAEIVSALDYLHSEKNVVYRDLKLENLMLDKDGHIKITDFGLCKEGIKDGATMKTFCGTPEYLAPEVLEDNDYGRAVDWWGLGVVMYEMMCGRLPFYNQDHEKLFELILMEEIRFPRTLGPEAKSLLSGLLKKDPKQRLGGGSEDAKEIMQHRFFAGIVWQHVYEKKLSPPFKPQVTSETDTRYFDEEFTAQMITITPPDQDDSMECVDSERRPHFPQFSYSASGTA
Assay type: cell-based
CCc1ccc(OC(C)=O)c(Cc2cc(CCCl)ccc2OC(C)=O)c1 showed a pIC50 of 4.60.

These molecules were tested against T1, RAC-alpha serine/threonine-protein kinase (assay: Inhibition of PKB activation in human overnight starved MCF7 cells assessed as phosphorylated Akt at Ser473 level at 50 ug/ml after 1 hr followed by treated with 1 ug/mL of insulin for 15 mins by Western blotting).
CCc1ccc(OC(C)=O)c(Cc2cc(CC)ccc2OC(C)=O)c1 was tested, and the “inhibition of PKB activation (active/not active)” value (from here on “inhibition … (active/not active)”) was “Active”. With CCc1ccc(OC(C)=O)c(Cc2cc(CCCl)ccc2OC(C)=O)c1 the “inhibition … (active/not active)” value was “Active”. CC(=O)Oc1ccccc1Cc1cc(CCCl)ccc1OC(C)=O was tested, and the “inhibition … (active/not active)” value was “Active”. For CC(=O)Oc1ccccc1Cc1ccccc1OC(C)=O, the “inhibition … (active/not active)” value was “inactive”. For CCc1ccc(Cc2cc(CCCl)ccc2OC(C)=O)c(OC(C)=O)c1, the “inhibition … (active/not active)” value was “Active”. CCc1ccc(OC(C)=O)c(Cc2ccccc2OC(C)=O)c1 was tested, and the “inhibition … (active/not active)” value was “inactive”.
